One series concerns the target T1, HER4 (Homo sapiens, UniProt Q15303).
T1 construct: purchased BPS Bioscience
Kind of series: Kinase inhibition assay (Kinase-Glo Plus), HER4. Type of series: biochemical. Conditions: read-out: % inhibition of 10 μM HER4; 10 μM compound. The protocol: (§1) Luminescence signal was measured using a BioTek Synergy 2 microplate reader.

Another series has as its system Caco-2. Description: MTT antitumor assay, Caco-2. As to conditions: Homo sapiens, Caco-2, read-out: IC50 (μM) Caco-2.
The target of a further series is T2, EGFR (Homo sapiens, UniProt P00533).
T2 construct: purchased BPS Bioscience
T2 sequence (P00533 25-1210): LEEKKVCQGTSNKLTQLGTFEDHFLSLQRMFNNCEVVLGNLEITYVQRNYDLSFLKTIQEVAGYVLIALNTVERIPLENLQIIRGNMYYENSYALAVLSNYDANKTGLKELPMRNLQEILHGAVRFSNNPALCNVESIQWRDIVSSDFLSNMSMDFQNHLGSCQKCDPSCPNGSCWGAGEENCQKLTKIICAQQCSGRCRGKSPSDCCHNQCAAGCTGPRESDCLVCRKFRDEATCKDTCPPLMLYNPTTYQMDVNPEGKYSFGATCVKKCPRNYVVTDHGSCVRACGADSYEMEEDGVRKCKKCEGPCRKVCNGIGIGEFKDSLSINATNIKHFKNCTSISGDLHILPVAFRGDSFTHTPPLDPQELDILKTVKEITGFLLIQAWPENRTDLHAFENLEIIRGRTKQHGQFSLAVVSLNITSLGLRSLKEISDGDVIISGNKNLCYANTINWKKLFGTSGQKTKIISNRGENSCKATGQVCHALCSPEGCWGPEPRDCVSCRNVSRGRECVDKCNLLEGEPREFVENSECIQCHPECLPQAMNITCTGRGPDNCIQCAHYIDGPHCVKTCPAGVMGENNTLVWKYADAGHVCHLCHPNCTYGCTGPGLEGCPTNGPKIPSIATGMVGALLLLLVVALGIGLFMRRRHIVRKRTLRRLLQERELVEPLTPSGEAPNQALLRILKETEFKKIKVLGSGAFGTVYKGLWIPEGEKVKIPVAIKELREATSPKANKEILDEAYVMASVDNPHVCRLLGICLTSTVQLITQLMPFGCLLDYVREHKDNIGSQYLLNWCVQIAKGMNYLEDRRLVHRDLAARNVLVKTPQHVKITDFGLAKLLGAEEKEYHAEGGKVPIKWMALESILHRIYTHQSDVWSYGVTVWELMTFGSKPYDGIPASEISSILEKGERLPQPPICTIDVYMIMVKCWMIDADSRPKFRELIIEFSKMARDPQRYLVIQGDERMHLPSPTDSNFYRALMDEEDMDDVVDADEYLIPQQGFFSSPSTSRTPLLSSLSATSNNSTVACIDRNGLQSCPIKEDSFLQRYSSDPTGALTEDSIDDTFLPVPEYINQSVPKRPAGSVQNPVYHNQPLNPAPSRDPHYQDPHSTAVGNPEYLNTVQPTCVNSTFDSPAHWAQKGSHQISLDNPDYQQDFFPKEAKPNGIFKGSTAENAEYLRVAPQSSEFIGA
Kind of series: Kinase inhibition assay (Kinase-Glo Plus), EGFR. As to conditions: read-out: % inhibition of 10 μM EGFR; 10 μM compound. Format: biochemical. The protocol:
as §1

For a further series, the target named is T3, cSrc (Homo sapiens, UniProt P12931).
T3 construct: purchased BPS Bioscience
T3 sequence (P12931 whole entry): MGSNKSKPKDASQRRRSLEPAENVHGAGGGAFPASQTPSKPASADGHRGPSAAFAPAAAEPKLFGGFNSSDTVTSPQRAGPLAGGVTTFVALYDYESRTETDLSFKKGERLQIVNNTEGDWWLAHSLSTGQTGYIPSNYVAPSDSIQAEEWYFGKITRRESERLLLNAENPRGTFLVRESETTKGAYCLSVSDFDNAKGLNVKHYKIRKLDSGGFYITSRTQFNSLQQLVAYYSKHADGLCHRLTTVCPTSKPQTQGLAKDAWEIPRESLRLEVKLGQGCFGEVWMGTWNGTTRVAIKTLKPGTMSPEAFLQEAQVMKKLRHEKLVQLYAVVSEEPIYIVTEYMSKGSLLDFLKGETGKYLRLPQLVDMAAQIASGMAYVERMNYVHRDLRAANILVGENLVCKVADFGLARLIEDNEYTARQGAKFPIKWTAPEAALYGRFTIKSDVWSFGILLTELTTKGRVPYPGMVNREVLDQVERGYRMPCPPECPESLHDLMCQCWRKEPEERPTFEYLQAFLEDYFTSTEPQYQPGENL
Description: Kinase inhibition assay (Kinase-Glo Plus), cSrc. Type of series: biochemical. As to conditions: read-out: % inhibition; 10 μM compound. The protocol: as §1

A further series concerns the target T4, HER2 (Homo sapiens, UniProt P04626).
T4 construct: purchased BPS Bioscience
Description: Kinase inhibition assay (Kinase-Glo Plus), HER2. Format: biochemical. Conditions: read-out: % inhibition of 10 μM HER2; 10 μM compound. The protocol:
as §1

For another series, the target named is T5, COX-1 (Ovis aries, UniProt P05979).
T5 sequence (P05979 25-600): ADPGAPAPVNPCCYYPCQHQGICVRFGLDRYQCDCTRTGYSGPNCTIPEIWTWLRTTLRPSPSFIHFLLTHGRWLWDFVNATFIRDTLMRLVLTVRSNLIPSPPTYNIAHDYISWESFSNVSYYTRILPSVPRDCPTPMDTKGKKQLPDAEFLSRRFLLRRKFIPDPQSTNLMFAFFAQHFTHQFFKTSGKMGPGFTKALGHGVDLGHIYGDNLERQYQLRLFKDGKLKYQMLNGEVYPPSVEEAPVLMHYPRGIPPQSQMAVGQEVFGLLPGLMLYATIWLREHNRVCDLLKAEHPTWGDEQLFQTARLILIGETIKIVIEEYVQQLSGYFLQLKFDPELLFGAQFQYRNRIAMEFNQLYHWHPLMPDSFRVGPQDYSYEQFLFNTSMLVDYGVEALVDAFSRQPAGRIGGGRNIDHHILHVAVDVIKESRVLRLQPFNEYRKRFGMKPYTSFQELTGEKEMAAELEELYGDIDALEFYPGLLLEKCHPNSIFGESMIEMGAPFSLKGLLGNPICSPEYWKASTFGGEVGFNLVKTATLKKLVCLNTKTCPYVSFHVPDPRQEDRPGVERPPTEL
Kind of series: In vitro COX-1 enzyme inhibition assay (colorimetric kit).

Another series has as its system MCF-7. Description: MTT antitumor assay, MCF-7. Conditions: Homo sapiens, MCF7, read-out: IC50 (μM) MCF-7, human breast adenocarcinoma cell line, MTT, mean ± SD, n = 3.
The target of a further series is T6, COX-2 (Ovis aries, UniProt P79208).
T6 sequence (P79208 17-603): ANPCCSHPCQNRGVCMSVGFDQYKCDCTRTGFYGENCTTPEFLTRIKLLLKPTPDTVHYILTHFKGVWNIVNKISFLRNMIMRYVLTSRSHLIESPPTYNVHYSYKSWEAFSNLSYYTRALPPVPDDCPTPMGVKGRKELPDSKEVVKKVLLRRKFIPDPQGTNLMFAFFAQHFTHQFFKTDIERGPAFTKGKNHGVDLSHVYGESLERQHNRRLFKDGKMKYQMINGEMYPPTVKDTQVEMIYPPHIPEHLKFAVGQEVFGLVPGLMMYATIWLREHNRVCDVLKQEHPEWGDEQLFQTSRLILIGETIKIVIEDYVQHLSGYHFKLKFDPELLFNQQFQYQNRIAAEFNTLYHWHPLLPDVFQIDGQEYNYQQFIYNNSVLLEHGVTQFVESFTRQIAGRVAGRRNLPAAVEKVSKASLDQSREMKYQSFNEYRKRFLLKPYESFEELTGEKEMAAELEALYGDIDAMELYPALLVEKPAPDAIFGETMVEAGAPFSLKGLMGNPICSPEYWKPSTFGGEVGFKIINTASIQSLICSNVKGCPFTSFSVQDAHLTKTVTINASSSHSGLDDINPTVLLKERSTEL
Kind of series: In vitro COX-2 enzyme inhibition assay (colorimetric kit). Conditions: for SI, selectivity index (COX-1 IC50/COX-2 IC50): COX-2 selectivity over COX-1.

The subject of a further series is HCT-116. Kind of series: MTT antitumor assay, HCT-116. As to conditions: Homo sapiens, HCT-116, read-out: IC50 (μM) HCT-116, human colon cancer cell line, MTT, mean ± SD, n = 3.
In the next series the test system is HepG2. Kind of series: MTT antitumor assay, HepG2. Conditions: Homo sapiens, HepG2, read-out: IC50 (μM) HepG2.

The structures appear in SMILES notation.

T1 sequence (Q15303 26-1308): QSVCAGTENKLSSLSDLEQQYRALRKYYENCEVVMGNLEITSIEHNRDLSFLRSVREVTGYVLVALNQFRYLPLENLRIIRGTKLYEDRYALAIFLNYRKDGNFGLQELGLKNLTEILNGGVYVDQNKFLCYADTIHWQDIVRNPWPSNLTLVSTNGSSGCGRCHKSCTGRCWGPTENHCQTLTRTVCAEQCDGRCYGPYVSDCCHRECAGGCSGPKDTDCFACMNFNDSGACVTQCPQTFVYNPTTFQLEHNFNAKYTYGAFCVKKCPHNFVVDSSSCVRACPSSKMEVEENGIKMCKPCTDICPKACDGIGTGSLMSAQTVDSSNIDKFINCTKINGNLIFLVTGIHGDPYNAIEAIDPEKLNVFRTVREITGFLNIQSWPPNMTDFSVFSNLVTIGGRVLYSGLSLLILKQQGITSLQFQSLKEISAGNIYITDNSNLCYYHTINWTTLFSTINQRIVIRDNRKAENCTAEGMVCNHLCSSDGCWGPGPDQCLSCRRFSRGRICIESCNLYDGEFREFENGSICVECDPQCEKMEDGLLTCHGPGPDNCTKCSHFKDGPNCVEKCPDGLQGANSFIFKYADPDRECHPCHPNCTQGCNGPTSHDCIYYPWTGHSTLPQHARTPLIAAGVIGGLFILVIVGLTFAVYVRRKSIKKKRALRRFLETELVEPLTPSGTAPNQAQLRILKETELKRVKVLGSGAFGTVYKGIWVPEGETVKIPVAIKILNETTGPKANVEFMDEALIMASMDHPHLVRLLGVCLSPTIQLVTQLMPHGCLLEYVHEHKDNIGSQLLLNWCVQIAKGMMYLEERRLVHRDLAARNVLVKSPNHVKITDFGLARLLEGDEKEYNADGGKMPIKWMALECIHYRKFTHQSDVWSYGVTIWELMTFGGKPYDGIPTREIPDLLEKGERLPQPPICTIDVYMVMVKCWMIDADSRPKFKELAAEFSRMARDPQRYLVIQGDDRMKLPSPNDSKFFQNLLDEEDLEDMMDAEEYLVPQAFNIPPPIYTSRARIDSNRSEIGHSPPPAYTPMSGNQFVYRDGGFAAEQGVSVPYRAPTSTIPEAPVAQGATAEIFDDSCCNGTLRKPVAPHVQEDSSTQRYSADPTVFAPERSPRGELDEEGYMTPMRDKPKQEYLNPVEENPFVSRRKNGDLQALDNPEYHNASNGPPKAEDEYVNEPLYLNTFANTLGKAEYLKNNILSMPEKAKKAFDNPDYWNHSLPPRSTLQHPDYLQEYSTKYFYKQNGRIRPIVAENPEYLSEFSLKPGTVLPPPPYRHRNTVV
T4 sequence (P04626 23-1255): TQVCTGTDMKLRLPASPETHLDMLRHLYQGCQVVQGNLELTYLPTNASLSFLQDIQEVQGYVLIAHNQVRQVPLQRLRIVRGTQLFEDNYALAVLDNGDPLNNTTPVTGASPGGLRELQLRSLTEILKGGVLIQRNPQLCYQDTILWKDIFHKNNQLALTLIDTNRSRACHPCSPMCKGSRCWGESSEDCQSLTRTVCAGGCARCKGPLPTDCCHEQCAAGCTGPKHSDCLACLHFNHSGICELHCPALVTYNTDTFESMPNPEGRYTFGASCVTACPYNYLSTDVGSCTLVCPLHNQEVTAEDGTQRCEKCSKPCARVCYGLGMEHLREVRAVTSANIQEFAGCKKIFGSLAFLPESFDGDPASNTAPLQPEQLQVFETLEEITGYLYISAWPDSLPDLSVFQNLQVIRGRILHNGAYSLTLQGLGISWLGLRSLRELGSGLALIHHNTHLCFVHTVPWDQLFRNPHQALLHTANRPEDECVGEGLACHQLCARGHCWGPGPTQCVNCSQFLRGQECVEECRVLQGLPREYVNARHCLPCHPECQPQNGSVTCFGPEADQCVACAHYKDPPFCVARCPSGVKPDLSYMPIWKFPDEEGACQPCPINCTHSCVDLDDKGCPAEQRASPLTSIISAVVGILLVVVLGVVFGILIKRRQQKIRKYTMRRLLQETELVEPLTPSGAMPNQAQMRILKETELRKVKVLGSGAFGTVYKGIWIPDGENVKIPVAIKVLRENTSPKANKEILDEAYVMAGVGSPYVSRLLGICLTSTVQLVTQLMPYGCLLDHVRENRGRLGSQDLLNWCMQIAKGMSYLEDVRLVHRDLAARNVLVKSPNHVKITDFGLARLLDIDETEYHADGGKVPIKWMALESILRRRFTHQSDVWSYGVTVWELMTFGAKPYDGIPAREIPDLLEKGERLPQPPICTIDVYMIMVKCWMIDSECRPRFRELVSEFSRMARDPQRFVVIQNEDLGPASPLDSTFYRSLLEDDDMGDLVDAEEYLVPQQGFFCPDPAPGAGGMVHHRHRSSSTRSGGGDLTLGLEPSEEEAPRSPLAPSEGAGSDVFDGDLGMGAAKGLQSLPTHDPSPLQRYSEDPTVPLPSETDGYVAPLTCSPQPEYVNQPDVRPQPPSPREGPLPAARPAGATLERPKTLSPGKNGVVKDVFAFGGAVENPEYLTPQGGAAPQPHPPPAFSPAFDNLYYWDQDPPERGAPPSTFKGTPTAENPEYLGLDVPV
Description for COX-1: (§2) IC50 (represented in μM) (The half-maximal inhibitor concentration) values were determined[56–59], and the SI values were calculated[51]^,[52]^,[55] as IC50 (COX-1)/IC50 (COX-2).
Description for COX-2: as §2
Description for Caco-2: (§3) The evaluation of the antitumour activity was performed using tetrazolium salt MTT (3–(4,5-dimethyl-2-thiazolyl)-2,5-diphenyl-2H-tetrazolium bromide) assay as reported[47–50].
Description for HCT-116: as §3
Description for HepG2: as §3
Description for MCF-7: as §3

As for `COc1ccc2c(c1)c(CC(=O)SC1CCCCC1)c(C)n2C(=O)c1ccc(Cl)cc1` [7b, S-cyclohexyl-2–(1-(4-chlorobenzoyl)-5-methoxy-2-methyl-1H-indol-3-yl)ethanethioate], the melting point lay in the range of 97 to 98 °C. Besides, the inhibition at 10 µM at HER4 was found to be 3%. For the same molecule, the IC50 in the series on Caco-2 came out at 29.1 ± 2.45 µM. The inhibition at 10 µM on EGFR worked out at 1%. Also, at cSrc, the inhibition at 10 µM came out at 3%. Also, the inhibition at 10 µM on HER2 turned out to be 0%. The IC50 against COX-1 is > 50 µM. Further, the IC50 with MCF-7 was determined as 17.1 ± 1.4 µM. For the same molecule, on COX-2, the half-maximal inhibitory concentration (IC50) worked out at 0.49 ± 0.044 µM and the “SI, selectivity index (COX-1 IC50/COX-2 IC50)” value is recorded as >102.0. The concentration for half-maximal inhibition (IC50) in the series on HCT-116 is 34 ± 2.25 µM. Further, in the series on HepG2, the IC50 is 14.9 ± 1.38 µM.
`O=C(Cc1ccccc1Nc1c(Cl)cccc1Cl)Sc1ccccc1` [6a, S-phenyl-2–(2-((2,6-dichlorophenyl)amino)phenyl)ethanethioate] gave a melting point of 101 to 102 °C. Moreover, on HER4, the inhibition at 10 µM was 5%. For the same molecule, in the series on Caco-2, the IC50 worked out at 10.2 ± 0.92 µM. Also, the inhibition at 10 µM on EGFR turned out to be 6%. Besides, on cSrc, the inhibition at 10 µM was 5%. Also, the inhibition at 10 µM on HER2 is 1%. On COX-1, the concentration for half-maximal inhibition (IC50) is > 50 µM. In addition, the IC50 in the series with MCF-7 was 6.11 ± 0.31 µM. Moreover, at COX-2, 0.25 ± 0.017 µM corresponded to half-maximal inhibition (IC50) and the “SI, selectivity index (COX-1 IC50/COX-2 IC50)” value is on record as >200.0. Further, the IC50 with HCT-116 is 46.9 ± 3.23 µM. Moreover, in the series with HepG2, the half-inhibitory concentration (IC50) is 26.8 ± 2.08 µM.
Turning to `COc1ccc2c(c1)c(CC(=O)Sc1ccccc1)c(C)n2C(=O)c1ccc(Cl)cc1` [7a, S-phenyl-2–(1-(4-chlorobenzoyl)-5-methoxy-2-methyl-1H-indol-3-yl)ethanethioate], the melting point lay within 133 to 135 °C. Moreover, on HER4, the inhibition at 10 µM amounted to 4%. For the same molecule, the IC50 with Caco-2 was determined as 18.1 ± 1.73 µM. Also, the inhibition at 10 µM on EGFR was found to be 0%. In addition, the inhibition at 10 µM on cSrc is 1%. Also, the inhibition at 10 µM on HER2 is 0%. Moreover, at COX-1, the IC50 is > 50 µM. Also, in the series on MCF-7, the IC50 was determined as 9.65 ± 0.96 µM. At COX-2, the IC50 was determined as 0.22 ± 0.019 µM and the “SI, selectivity index (COX-1 IC50/COX-2 IC50)” value is >227.3. The IC50 with HCT-116 was 14.6 ± 1.24 µM. In addition, the IC50 with HepG2 amounted to 7.86 ± 0.39 µM.
